Measurements: PMC12745320 (2025)

What was measured:
[1] = system: PTL-1 (DNA, aptamer) GACGACGGCCAAGCTAACGGCTGCTAAGCATGTGGAGTCGTC; assay: ThT fluorescence displacement; conditions: 150 mM NaCl, 5 mM MgCl2 (main text; supplement: 2.0 mM MgCl2); 10 mM MES (supplement: 20 mM), pH 6.0; ThT displaced; tested at 200 μM
[2] = system: PTL-1 (DNA, aptamer) GACGACGGCCAAGCTAACGGCTGCTAAGCATGTGGAGTCGTC; assay: ThT fluorescence; conditions: 150 mM NaCl, 5 mM MgCl2 (main text; supplement: 2.0 mM MgCl2); 10 mM MES (supplement: 20 mM), pH 6.0; 1.0 μM aptamer, 2.0 μM ThT; described as non-specific binding
[3] = system: PTL-1c (DNA, aptamer) GACGACGGCCAAGAATCCGGCTGCTAAGCATGTGGAGTCGTC; assay: ITC; conditions: 150 mM NaCl, 5 mM MgCl2 (main text; supplement: 2.0 mM MgCl2); 10 mM MES (supplement: 20 mM), pH 6.0, 25 °C; typically 1.0 mM PTL in syringe
[4] = system: PTL-1a (DNA, aptamer) GACGACTCCAAGAATCCGGCTGCTAAGCATGTGGAGTCGTC; assay: ITC; conditions: 150 mM NaCl, 5 mM MgCl2 (main text; supplement: 2.0 mM MgCl2); 10 mM MES (supplement: 20 mM), pH 6.0, 25 °C; typically 1.0 mM PTL in syringe
[5] = system: PTL-1b (DNA, aptamer) GACGACGGCGAAGCTAACGGCTGCTAAGCATGTCGAGTCGTC; assay: ITC; conditions: 150 mM NaCl, 5 mM MgCl2 (main text; supplement: 2.0 mM MgCl2); 10 mM MES (supplement: 20 mM), pH 6.0, 25 °C; typically 1.0 mM PTL in syringe
[6] = system: PTL-1 (DNA, aptamer) GACGACGGCCAAGCTAACGGCTGCTAAGCATGTGGAGTCGTC; assay: ThT fluorescence displacement titration; conditions: 150 mM NaCl, 5 mM MgCl2 (main text; supplement: 2.0 mM MgCl2), 10 mM MES (supplement: 20 mM), pH 6.0, ThT 2.0 μM displaced, 1.0 μM aptamer
[7] = system: PTL-1 (DNA, aptamer) GACGACGGCCAAGCTAACGGCTGCTAAGCATGTGGAGTCGTC; assay: ITC; conditions: 150 mM NaCl, 5 mM MgCl2 (main text; supplement: 2.0 mM MgCl2); 10 mM MES (supplement: 20 mM), pH 6.0, 25 °C; 20 μM aptamer

Row | SMILES | binding [1] | further results
1 | O=C(N[C@H](CO)[C@H](O)c1ccc([N+](=O)[O-])cc1)C(Cl)Cl | no | –
2 | CC1(C)S[C@@H]2[C@H](NC(=O)[C@H](N)c3ccccc3)C(=O)N2[C@H]1C(=O)O | no | –
3 | Cc1ncc([N+](=O)[O-])n1CCO | no | –
4 | CS(=O)(=O)c1ccc([C@@H](O)[C@@H](CO)NC(=O)C(Cl)Cl)cc1 | no | –
5 | NC(=O)N1c2ccccc2C=Cc2ccccc21 | no | –
6 | Cc1ccc2c(c1)sc(-c1ccc(N(C)C)cc1)[n+]2C | – | binding [2]: yes
7 | O=C1C=C2C(=CCOC2O)O1 (stereo not shown) | – | binding [3]: no; binding [4]: no; binding [5]: no; apparent Kd [6]: 18.4 µM; Kd [7]: 12.5 µM
8 | C[C@H]1CCCC(=O)CCC/C=C/c2cc(O)cc(O)c2C(=O)O1 | no | –
9 | COc1cc(NS(=O)(=O)c2ccc(N)cc2)nc(OC)n1 | no | –
10 | Nc1ccc(S(=O)(=O)Nc2cnc3ccccc3n2)cc1 | no | –

Now from value to compound, other results behind:

Row | binding [1] | SMILES | further results
11 | no | C=C1[C@@H](O)[C@@H]2O[C@]3(CC[C@H](/C=C/[C@@H](C)[C@@H]4CC(C)=C[C@@]5(O[C@H](C[C@@](C)(O)C(=O)O)CC[C@H]5O)O4)O3)CC[C@H]2O[C@@H]1[C@@H](O)C[C@H](C)[C@H]1O[C@@]2(CCCCO2)CC[C@H]1C | –
12 | no | CCCC[C@@H](C)[C@@H](OC(=O)C[C@@H](CC(=O)O)C(=O)O)[C@H](C[C@@H](C)C[C@H](O)CCCC[C@@H](O)C[C@H](O)[C@H](C)N)OC(=O)C[C@@H](CC(=O)O)C(=O)O | –
13 | no | C[C@@H]1Cc2c(Cl)cc(C(=O)N[C@@H](Cc3ccccc3)C(=O)O)c(O)c2C(=O)O1 | –
14 | no | CC1(C)S[C@@H]2[C@H](NC(=O)Cc3ccccc3)C(=O)N2[C@H]1C(=O)O | –
15 | no | C[C@@H]1C[C@H]2[C@@H]3CCC4=CC(=O)C=C[C@]4(C)[C@@]3(F)[C@@H](O)C[C@]2(C)[C@@]1(O)C(=O)CO | –
